ChEMBL document CHEMBL1126746, “Sulfonylmethanesulfonamide inhibitors of carbonic anhydrase” (J Med Chem, 1993)

Assays:
Carbonic anhydrase 2 = Carbonic anhydrase 2 (Homo sapiens, UniProt P00918)
Description: In vitro inhibition of purified human erythrocyte carbonic anhydrase II

Carbonic anhydrase = type: protein assay, Canis lupus familiaris
Description: In vitro inhibition of crude dog red blood cell carbonic anhydrase

[1] = tested on: Carbonic anhydrase (Oryctolagus cuniculus); assay: Ex vivo inhibition of carbonic anhydrase in homogenate of rabbit iris-ciliary body; expressed as volume/minute of 0.025 N NaOH required to maintain pH of assay mixture at 0.25 mg
[2] = tested on: Carbonic anhydrase (Oryctolagus cuniculus); assay: Ex vivo inhibition of carbonic anhydrase in homogenate of rabbit iris-ciliary body; expressed as volume/minute of 0.025 N NaOH required to maintain pH of assay mixture at 0.05 mg
[3] = tested on: Carbonic anhydrase (Oryctolagus cuniculus); assay: Inhibition of carbonic anhydrase activity in a homogenate of rabbit iris-ciliary body at a dose of 0.25 mg (ex vivo)
[4] = Equilibrium dissociation constant of CA complex for enantiomer 2 of compound; type: ADME
[5] = Equilibrium dissociation constant of CA complex for enantiomer 1 of compound; type: ADME
[6] = tested on: Carbonic anhydrase (Oryctolagus cuniculus); assay: Inhibition of carbonic anhydrase activity in a homogenate of rabbit iris-ciliary body at a dose of 0.05 mg (ex vivo)
[7] = Equilibrium dissociation constant was determined; type: ADME

Description for physchem: Acid dissociation constant was determined

Structure (SMILES)	IC50 (Carbonic anhydrase 2) [µM]	pKa (physchem)	also measured
CCS(N)(=O)=O [ETHANESULFONIC ACID AMIDE]	–	–	IC50 (Carbonic anhydrase): 1000 µM
CCCCCCCCS(=O)(=O)C(F)S(N)(=O)=O (stereo not drawn)	0.003	7.5	CA activity ((ml of NaOH) min-1) [1]: 0.043; CA activity ((ml of NaOH) min-1) [2]: 0.147; inhibition [3]: 91%; Kd [4]: 0.00064 µM; Kd [5]: 0.00357 µM; inhibition [6]: 71%
NS(=O)(=O)CSCCc1ccccc1	2	9.5	–
CCCCCCCCSCS(N)(=O)=O	0.48	–	–
CCCCCCCCS(=O)(=O)C(Cl)(Cl)S(N)(=O)=O	0.2	–	–
NS(=O)(=O)CS(=O)(=O)CCCc1ccccc1	0.19	8.4	–

The remaining compounds from weak to strong by IC50 (Carbonic anhydrase 2), led by results:

IC50 (Carbonic anhydrase 2) [µM]	pKa (physchem)	Structure (SMILES)	also measured
2.9	10.1	NS(=O)(=O)CSc1ccc(O)cc1	–
2.5	8.9	CCCCCCCCS(=O)(=O)C(C)S(N)(=O)=O (stereo not drawn)	–
1.3	–	COCCOCCOCS(=O)(=O)CS(N)(=O)=O	–
1.2	9.4	NS(=O)(=O)CSCCCc1ccccc1	–
0.8	8.8	COc1ccc2c(c1)S(=O)(=O)C(S(N)(=O)=O)C2 (stereo not drawn)	–
0.4	9.1	NS(=O)(=O)CS(=O)(=O)c1ccc(O)cc1	–
0.1	8.4	NS(=O)(=O)CS(=O)(=O)CCc1ccccc1	–
0.022	9.4	CCCCCCCCS(=O)(=O)CS(N)(=O)=O	–
0.012	7.7	CCCCCCCCS(=O)(=O)C(Cl)S(N)(=O)=O (stereo not drawn)	Kd [7]: 0.017 µM
